Results: patent publication US10508120B2, “TYK2 inhibitors and uses thereof” (Nimbus Lakshmi, Inc., priority 2017, dated 2019)
pKd: −log10 of the molar value.

How the values were obtained:
Tyk2 kinase domain (DH1) = Tyk2 kinase domain (DH1) (Homo sapiens (Human), UniProt P29597); test: Tyk2 Radioactive Kinase Assay; format: biochemical; conditions: compound at 10 μM; ATP 10 μM; read-out: Tyk2 JH1% Inhibition @ 10 μM
How it was run: (§1)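 Compounds were tested at a single concentration of 10 μM in a radiometric kinase format against each isolated kinase domain. Activity is reported as percent inhibition at that concentration.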

[1] = target: human TYK2 (JH2domain-pseudokinase) (Homo sapiens (Human), UniProt P29597); test: TYK2 JH2 Domain Binding Assay (KINOMEscan)
How it was run: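 Pseudokinase domain binding was measured by qPCR of tagged, bead-retained kinase after 1 h room-temperature competition, with 0.9% DMSO and compound up to 30,000 nM in 3-fold steps. Hill-equation Kd, duplicate.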

JAK2 kinase domain (JH1) = JAK2 kinase domain (JH1) (Homo sapiens (Human), UniProt O60674); test: JAK2 Radioactive Kinase Assay; format: biochemical; conditions: compound at 10 μM; ATP 10 μM; read-out: JAK2 JH1% Inhibition @ 10 μM
How it was run: as §1

Chain of JAK2 kinase domain (JH1) (O60674 849-1124): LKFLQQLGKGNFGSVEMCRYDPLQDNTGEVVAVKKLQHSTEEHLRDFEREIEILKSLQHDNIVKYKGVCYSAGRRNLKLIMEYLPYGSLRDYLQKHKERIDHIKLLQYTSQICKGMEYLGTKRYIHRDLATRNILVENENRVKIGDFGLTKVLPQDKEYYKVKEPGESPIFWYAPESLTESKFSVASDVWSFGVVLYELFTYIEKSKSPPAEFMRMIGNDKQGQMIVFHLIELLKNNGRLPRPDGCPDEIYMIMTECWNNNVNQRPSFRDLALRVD
Chain of Tyk2 kinase domain (DH1) (P29597 897-1176): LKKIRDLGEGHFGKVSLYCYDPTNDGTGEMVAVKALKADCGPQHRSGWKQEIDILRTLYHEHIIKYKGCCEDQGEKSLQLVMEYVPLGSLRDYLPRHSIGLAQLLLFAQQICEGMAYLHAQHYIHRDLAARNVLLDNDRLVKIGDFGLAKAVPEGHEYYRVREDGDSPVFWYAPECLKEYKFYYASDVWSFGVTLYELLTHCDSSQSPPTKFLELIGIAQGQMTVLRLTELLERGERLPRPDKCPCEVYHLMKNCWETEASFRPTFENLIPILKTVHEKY
Chain of human TYK2 (JH2domain-pseudokinase) (P29597 556-888): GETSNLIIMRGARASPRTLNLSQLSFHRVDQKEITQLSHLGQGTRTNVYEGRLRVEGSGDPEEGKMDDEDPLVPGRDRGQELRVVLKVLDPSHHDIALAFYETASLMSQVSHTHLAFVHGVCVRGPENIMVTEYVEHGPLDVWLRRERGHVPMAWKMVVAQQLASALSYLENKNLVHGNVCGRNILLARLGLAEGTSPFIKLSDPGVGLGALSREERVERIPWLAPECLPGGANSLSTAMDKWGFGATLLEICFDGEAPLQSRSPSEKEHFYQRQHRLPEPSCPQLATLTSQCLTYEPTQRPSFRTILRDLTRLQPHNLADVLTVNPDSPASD

Row | SMILES | inhibition at 10 µM (Tyk2 kinase domain (DH1)) | pKd [1] | inhibition at 10 µM (JAK2 kinase domain (JH1))
1 | Cc1c(Nc2cccnc2OC(C)C)nc2c(C(=O)NC3CC3)cnn2c1N [I-207, 7-amino-N-cyclopropyl-5-((2-isopropoxypyridin-3-yl)amino)-6-methylpyrazolo[1,5-a]pyrimidine-3-carboxamide] | < 50% | 8.00 to 9.00 | < 50%
2 | Cc1c(Nc2cccnc2OC(C)C)nc2c(C(=O)NC3CCC3)cnn2c1N [I-208, 7-amino-N-cyclobutyl-5-((2-isopropoxypyridin-3-yl)amino)-6-methyl pyrazolo[1,5-a]pyrimidine-3-carboxamide] | < 50% | 8.00 to 9.00 | < 50%
3 | CNc1cc(Nc2cc(F)cnc2OC(C)C)nc2c(C(=O)NC3CC3)cnn12 [I-209] | < 50% | 9.00 to 9.70 | < 50%
4 | CNc1cc(Nc2cc(F)cnc2OC(C)C)nc2c(C(=O)NC3CCC3)cnn12 [I-210] | < 50% | 9.00 to 9.70 | < 50%
5 | CNc1cc(Nc2cc(C)cnc2OC(C)C)nc2c(C(=O)NC3CC3)cnn12 [I-212] | < 50% | 9.00 to 9.70 | < 50%
6 | CNc1cc(Nc2cc(C)cnc2OC(C)C)nc2c(C(=O)NC3CCC3)cnn12 [I-213] | < 50% | 8.00 to 9.00 | < 50%
7 | CNc1cc(Nc2cc(C)cnc2OC(C)C)nc2c(C(=O)N[C@H]3C[C@H]3F)cnn12 [I-214] | < 50% | > 9.70 | < 50%
8 | CNc1cc(Nc2cccnc2OCCOC)nc2c(C(=O)NC3CC3)cnn12 [I-218] | < 50% | > 9.70 | < 50%
9 | CNc1cc(Nc2cccnc2OC2CCCCC2)nc2c(C(=O)NC3CC3)cnn12 [I-221] | < 50% | 8.00 to 9.00 | < 50%
10 | CNc1cc(Nc2cccnc2OC2CCCCC2)nc2c(C(=O)NC3CCC3)cnn12 [I-226] | < 50% | 8.00 to 9.00 | < 50%
11 | CNc1cc(Nc2cccnc2OC2CCCCC2)nc2c(C(=O)N[C@H]3C[C@H]3F)cnn12 [I-227] | < 50% | 9.00 to 9.70 | < 50%
12 | CNc1cc(Nc2cccnc2OC2COC2)nc2c(C(=O)NC3CC3)cnn12 [I-228] | < 50% | 8.00 to 9.00 | < 50%
13 | CNc1cc(Nc2cccn(C3CCN(CC(F)F)CC3)c2=O)nc2c(C(=O)N[C@H]3C[C@H]3F)cnn12 [I-230] | < 50% | 9.00 to 9.70 | < 50%
14 | CNc1cc(Nc2cccnc2O[C@H]2CC[C@H](O)CC2)nc2c(C(=O)NC3CC3)cnn12 [I-231] | < 50% | 9.00 to 9.70 | < 50%
15 | CNc1cc(Nc2cccnc2O[C@H]2CC[C@H](O)CC2)nc2c(C(=O)NC3CCC3)cnn12 [I-232] | < 50% | > 9.70 | < 50%
16 | CNc1cc(Nc2cccn(-c3cccc(C)n3)c2=O)nc2c(C(=O)NC3CC3)cnn12 [I-237] | < 50% | > 9.70 | < 50%
17 | CNc1cc(Nc2cccnc2O[C@H]2CC[C@H](O)CC2)nc2c(C(=O)N[C@H]3C[C@H]3F)cnn12 [I-239] | < 50% | > 9.70 | < 50%
18 | CNc1cc(Nc2cccn(-c3ccc(C4CC4)nn3)c2=O)nc2c(C(=O)NC3CC3)cnn12 [I-241] | < 50% | > 9.70 | < 50%
19 | CNc1cc(Nc2cccn(-c3nccs3)c2=O)nc2c(C(=O)NC3CCC3)cnn12 [I-242] | < 50% | > 9.70 | < 50%
20 | CNc1cc(Nc2cccn(-c3ccc(F)cc3)c2=O)nc2c(C(=O)NCC(C)(C)CO)cnn12 [I-245] | < 50% | > 9.70 | < 50%
21 | CNc1cc(Nc2cccnc2O[C@H]2CC[C@H](OC)CC2)nc2c(C(=O)NC3CC3)cnn12 [I-247] | < 50% | 9.00 to 9.70 | < 50%
22 | CNc1cc(Nc2cccnc2O[C@H]2CC[C@H](OC)CC2)nc2c(C(=O)NC3CCC3)cnn12 [I-248] | < 50% | 9.00 to 9.70 | < 50%
23 | CNc1cc(Nc2cccnc2O[C@H]2CC[C@H](OC)CC2)nc2c(C(=O)N[C@H]3C[C@H]3F)cnn12 [I-249] | < 50% | > 9.70 | < 50%
24 | CNc1cc(Nc2cc(C)cn(-c3ccn(C)n3)c2=O)nc2c(C(=O)NC3CCC3)cnn12 [I-251] | < 50% | > 9.70 | < 50%

Row | SMILES | inhibition at 10 µM (Tyk2 kinase domain (DH1)) | pKd [1] | inhibition at 10 µM (JAK2 kinase domain (JH1))
25 | CNc1cc(-c2cn(C(C)C)c3ncc(C)cc23)nc2c(C(=O)NC3CC3)cnn12 [I-252] | < 50% | 8.00 to 9.00 | < 50%
26 | CNc1cc(-c2cn(C(C)C)c3ncc(Cl)cc23)nc2c(C(=O)NC3CC3)cnn12 [I-253, 5-(5-chloro-1-isopropyl-1H-pyrrolo[2,3-b]pyridin-3-yl)-N-cyclopropyl-7-(methylamino)pyrazolo[1,5-a]pyrimidine-3-carboxamide] | < 50% | 9.00 to 9.70 | < 50%
27 | CNc1cc(-c2cn(C(C)C)c3ncc(C)cc23)nc2c(C(=O)NC3CCC3)cnn12 [I-256] | < 50% | 9.00 to 9.70 | < 50%
28 | CNc1cc(-c2cn(C(C)C)c3ncc(C)cc23)nc2c(C(=O)N[C@H]3C[C@H]3F)cnn12 [I-257] | < 50% | 9.00 to 9.70 | < 50%
29 | [2H]C([2H])([2H])Oc1ncc(C)cc1Nc1cc(NC)n2ncc(C(=O)NC3CCC3)c2n1 [I-260, N-cyclobutyl-5-((2-(methoxy-d3)-5-methylpyridin-3-yl)amino)-7-(methylamino)pyrazolo[1,5-a]pyrimidine-3-carboxamide] | < 50% | 9.00 to 9.70 | < 50%
30 | CNc1cc(Nc2cccn(-c3ccc(OC)cn3)c2=O)nc2c(C(=O)NC3CC3)cnn12 [I-264] | < 50% | 9.00 to 9.70 | < 50%
31 | CNc1cc(Nc2cccn(CCOC)c2=O)nc2c(C(=O)NC3CC3)cnn12 [I-267] | < 50% | > 9.70 | < 50%
32 | CNc1cc(Nc2cccn(CCOC)c2=O)nc2c(C(=O)N[C@H]3C[C@H]3F)cnn12 [I-268] | < 50% | > 9.70 | < 50%
33 | CNc1cc(Nc2cc(C)cnc2OC)nc2c(C(=O)NCC(C)(C)CO)cnn12 [I-270] | < 50% | 9.00 to 9.70 | < 50%
34 | CNc1cc(Nc2cc(C)cn(-c3ccn(C)n3)c2=O)nc2c(C(=O)NC3CC3)cnn12 [I-271] | < 50% | 9.00 to 9.70 | < 50%
35 | CNc1cc(-c2cn(C(C)C)c3ncc(Cl)cc23)nc2c(C(=O)NC3CCC3)cnn12 [I-273, 5-(5-chloro-1-isopropyl-1H-pyrrolo[2,3-b]pyridin-3-yl)-N-cyclobutyl-7-(methylamino)pyrazolo[1,5-a]pyrimidine-3-carboamide] | < 50% | 8.00 to 9.00 | < 50%
36 | CNc1cc(Nc2cc(C)cnc2OC2CC2)nc2c(C(=O)NC3CCC3)cnn12 [I-278] | < 50% | 9.00 to 9.70 | < 50%
37 | CNc1cc(Nc2cc(C)cnc2OC2CC2)nc2c(C(=O)N[C@H]3C[C@H]3F)cnn12 [I-279] | < 50% | > 9.70 | < 50%
38 | CNc1cc(Nc2cc(C)cnc2OCCOC)nc2c(C(=O)N[C@H]3C[C@H]3F)cnn12 [I-280] | < 50% | > 9.70 | < 50%
39 | CNc1cc(Nc2cc(F)cnc2OCCOC)nc2c(C(=O)NC3CC3)cnn12 [I-286] | < 50% | 9.00 to 9.70 | < 50%
40 | CNc1cc(Nc2cc(C)c(=O)n(-c3cnn(C)c3)c2)nc2c(C(N)=O)cnn12 [I-287, 5-((5-methyl-1-(1-methyl-1H-pyrazol-4-yl)-6-oxo-1,6-dihydropyridin-3-yl)amino)-7-(methylamino)pyrazolo[1,5-a]pyrimidine-3-carboxamide] | < 50% | 8.00 to 9.00 | < 50%
41 | [2H]C([2H])([2H])Oc1ncc(F)cc1Nc1cc(NC)n2ncc(C(=O)N[C@H]3C[C@H]3F)c2n1 [I-289] | < 50% | > 9.70 | < 50%
42 | CNc1cc(Nc2cccn(-c3nc(C)c(C)s3)c2=O)nc2c(C(=O)NC3CC3)cnn12 [I-291] | < 50% | 9.00 to 9.70 | < 50%
43 | CNc1cc(Nc2cccn(-c3nc(C)c(C)s3)c2=O)nc2c(C(=O)NC3CCC3)cnn12 [I-293] | < 50% | 9.00 to 9.70 | < 50%
44 | CNc1cc(Nc2cccnc2C(C)(F)F)nc2c(C(=O)NC3CC3)cnn12 [I-297] | < 50% | 9.00 to 9.70 | < 50%
45 | CNc1cc(Nc2cccnc2OC2COC2)nc2c(C(=O)NC3CCC3)cnn12 [I-298] | < 50% | 8.00 to 9.00 | < 50%
46 | CNc1cc(Nc2cccnc2C(C)(F)F)nc2c(C(=O)NC3CCC3)cnn12 [I-299] | < 50% | 9.00 to 9.70 | < 50%
47 | CNc1cc(Nc2cccnc2C(C)(F)F)nc2c(C(=O)N[C@H]3C[C@H]3F)cnn12 [I-300] | < 50% | 9.00 to 9.70 | < 50%
